Experimental data taken from US20030207812A1, “Cd45 inhibitors” (priority 2002, published 2003).

Columns and labels:
[1] = biological target: T1, CD45 (Homo sapiens, UniProt P08575); assay: Phosphatase assay using pNPP as substrate; format: biochemical; conditions: CD45 phosphatase, pNPP substrate, pH 7.0; read-out: pNPP IC50
T1 construct: incubating the cytosolic portion of CD45 with the compounds and p-nitrophenyl phosphate (pNPP); purchased BIOMOL (Plymouth Meeting, Pa.)
T1 sequence (P08575 599-1306 limits assumed): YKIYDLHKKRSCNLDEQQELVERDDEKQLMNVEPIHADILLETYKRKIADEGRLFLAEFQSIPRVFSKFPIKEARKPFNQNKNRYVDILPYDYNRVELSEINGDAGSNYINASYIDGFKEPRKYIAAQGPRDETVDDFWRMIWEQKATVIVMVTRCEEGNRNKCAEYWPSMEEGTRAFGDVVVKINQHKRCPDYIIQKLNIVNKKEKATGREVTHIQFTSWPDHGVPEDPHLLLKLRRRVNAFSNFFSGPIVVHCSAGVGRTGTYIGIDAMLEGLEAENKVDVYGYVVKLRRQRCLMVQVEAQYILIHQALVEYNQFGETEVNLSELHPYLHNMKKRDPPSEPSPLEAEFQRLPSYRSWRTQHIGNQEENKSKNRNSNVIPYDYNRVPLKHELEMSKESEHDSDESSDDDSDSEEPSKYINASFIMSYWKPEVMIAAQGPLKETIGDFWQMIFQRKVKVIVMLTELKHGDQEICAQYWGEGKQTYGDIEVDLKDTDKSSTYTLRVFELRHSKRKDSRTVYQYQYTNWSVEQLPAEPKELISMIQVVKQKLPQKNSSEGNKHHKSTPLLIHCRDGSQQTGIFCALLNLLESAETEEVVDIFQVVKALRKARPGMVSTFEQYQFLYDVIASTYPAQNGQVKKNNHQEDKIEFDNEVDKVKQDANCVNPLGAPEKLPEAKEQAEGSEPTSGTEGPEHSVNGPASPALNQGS
Experimental: Phosphatase assay using pNPP as substrate:
CD45 enzyme was obtained from BIOMOL (Plymouth Meeting, Pa.). Phosphatase activity was assayed in a buffer containing final concentrations of 25 mM imidazole at pH 7.0, 50 mM NaCl, 2.5 mM ethylenediaminetetraacetic acid (“EDTA”), 5 mM dithiothreitol (“DTT”) and 10 μg/mL bovine serum albumin (“BSA”) using pNPP as a substrate.

[2] = test system: T cells (PBMC); assay: cells; format: cell-based, human; conditions: human PBMC, OKT3 30 ng/mL, [3H]thymidine; read-out: T cell prolif. IC50
Experimental: Cell isolation and T cell proliferation assay:
Whole blood was obtained from healthy human blood donors. Peripheral blood mononuclear cells (“PBMC”) were isolated using Lymphoprep density-gradient centrifugation (Nycomed Amersham, Oslo, Norway), washed, counted and resuspended at 2×10^6 cells/mL in RPMI 1640 medium containing glutamine, 0.1 mg/mL gentamycin and 10% heat inactivated human serum. PBMC were transferred to 96-well plates (2×10^5 cells/well) containing compound or vehicle control, with the final concentration of DMSO not to exceed 0.3%, and incubated for 1 hour before addition of the activating anti-CD3 antibody, OKT3 (30ng/mL). After 24 hours in culture, the cells were pulsed with [^3H]thymidine (1 μCi/well) overnight and harvested the next day onto 96-well Packard GF/C filter plates using a Packard Cell Harvester (Packard Instruments, Meriden, Conn.). The filter plate was dried, the bottom of the plate sealed, 25 μL of Microscint 20 scintillation fluid added to each well, the top of the plate sealed with TopSeal-A, and the plate counted on a Packard TopCount. The data from the TopCount is transferred into Excel 5 (Microsoft, Redmond, Wash.) and formatted for EC50 determination using Prism software (GraphPad Software, San Diego, Calif.).

[3] = biological target: T1, CD45; assay: Phosphatase assay using lck 10-mer as substrate; format: biochemical; conditions: CD45 phosphatase, lck carboxy-terminal peptide TEGQpYQPQP substrate, pH 7.2; read-out: Ick IC50
Experimental: Phosphatase assay using lck 10-mer as substrate:
Phosphatase activity was assayed in 96 well plates in a buffer containing final concentrations of 25 mM HEPES at pH 7.2, 5 mM DTT and 10 μg/mL BSA using the lck carboxy-terminal peptide TEGQpYQPQP as the substrate (Cho, H., Krishnaraj, R., Itoh, M., Kitas, E., Bannwarth, W., Saito, H., Walsh, C. T. 1993. Substrate specificities of catalytic fragments of protein tyrosine phosphatases (HPTPb, LAR, and CD45) toward the phosphotyrosylpeptide substrates and thiophosphotyrosylated peptides as inhibitors. Protein Science 2:977-984). Compounds were tested in a range from 30 to 0.01 μM in a final concentration of 5% DMSO. Enzyme was incubated with substrate with or without compound, at room temperature for 1.5 h. At the end of the incubation period, BIOMOL “Green Reagent” (BIOMOL, Plymouth Meeting, Pa.) was added to each well, the plates incubated at room temperature for 30 min and absorbance read at 620 nm.

[4] = Cytotoxicity assay (Calcein-AM uptake); conditions: human, PHA-expanded T-cell lymphoblasts from PBMC
Experimental: Calcein-AM (Molecular Probes. Eugene, Oreg.) uptake, as a quantitative measure of cell viability, was used to evaluate the toxic effect of compounds on T cells.
The T-cell lymphoblasts were purified by separation over Lymphoprep, plated at 2×10^5/well in a round bottom 96-well plate containing RPMI with compound and incubated overnight at 37° C. in an incubator containing 5% CO2. The dilution scheme and culture media were the same as those used in the T-cell proliferation assay. After the incubation period, cells were washed with Dulbecco's phosphate-buffered saline (D-PBS) and incubated with 1 μM Calcein-AM for 30-45 mim in D-PBS as described in the technical sheet provided with The LIVE/DEAD Viability/Cytotoxicity Kit from Molecular Probes.

Row | Structure (SMILES) | IC50 [1] [µM] | IC50 [2] [µM] | IC50 [3] [µM] | CC50 [4] [µM]
1 | O=C1C(=O)c2cc(NC(=O)c3c(Cl)cc(Cl)cc3Cl)ccc2-c2ccccc21 [Example 6, 2,4,6-Trichloro-N-(9,10-dioxo-9,10-dihydro-phenanthren-2-yl)-benzamide] | 0.5 | 1.5 | 16 | 12
2 | O=C1C(=O)c2cc(NC(=O)C(Cl)(Cl)Cl)ccc2-c2ccccc21 [Example 7, 2,2,2-Trichloro-N-(9,10-dioxo-9,10-dihydro-phenanthren-2-yl)-acetamide] | 0.5 | 0.5 | 13 | 9
3 | O=C1C(=O)c2cc(NC(=O)c3ccccc3C(F)(F)F)ccc2-c2ccccc21 [Example 8, N-(9,10-Dioxo-9,10-dihydro-phenanthren-2-yl)-2-trifluoromethyl-benzamide] | 0.4 | 1.4 | 15 | 12
4 | CC(C)(C)C(=O)Nc1ccc2c(c1)-c1ccccc1C(=O)C2=O [Example 10, N-(9,10-Dioxo-9,10-dihydro-phenenathren-3-yl)-2,2-dimethyl-propionamide] | 1.2 | 0.7 | 4.9 | 10
5 | O=C(Nc1ccc2c(c1)-c1ccccc1C(=O)C2=O)c1ccccc1F [Example 12, N-(9,10-Dioxo-9,10-dihydro-phenanthren-3-yl)-2-fluoro-benzamide] | 1.3 | 3 | 6 | 15
6 | Cc1ccc(S(=O)(=O)Nc2ccc3c(c2)C(=O)C(=O)c2ccccc2-3)cc1 [Example 15, N-(9,10-Dioxo-9,10-dihydro-phenanthren-2-yl)-4-methyl-benzenesulfonamide] | 1 | 6.4 | 15 | > 30
7 | O=C1C(=O)c2cc(-c3ccsc3)ccc2-c2ccccc21 [Example 17, 2-Thiophen-3-yl-phenanthrene-9,10-dione] | 0.8 | 1.8 | > 30 | 7.3
8 | O=C1C(=O)c2cc(-c3ccc4c(c3)OCO4)ccc2-c2ccccc21 [Example 21, 2-Benzo[1,3]dioxol-5-yl-phenanthrene-9,10-dione] | 0.99 | 1.8 | > 30 | 4.9
9 | CCOc1ccccc1-c1ccc2c(c1)C(=O)C(=O)c1ccccc1-2 [Example 22, 2-(2-Ethoxy-phenyl)-phenanthrene-9,10-dione] | 3.6 | 0.7 | 9.7 | > 30
10 | CC(C)CNC(=O)[C@H](CCC(N)=O)NC(=O)CNC(=O)c1ccc2c(c1)-c1ccccc1C(=O)C2=O [Example 23] | 1.1 | 20 | 3 | > 30
11 | COC(=O)CCC(=O)Nc1cccc2c1-c1ccccc1C(=O)C2=O [Example 63, N-(9,10-Dioxo-9,10-dihydro-phenanthren-4-yl)-succinamic Acid Methyl Ester] | 0.7 | 1.2 | 2.6 | 8
12 | COC(=O)CCCCCCC(=O)Nc1ccc2c(c1)C(=O)C(=O)c1cccc([N+](=O)[O-])c1-2 [Example 64, 7-(5-Nitro-9,10-dioxo-9,10-dihydro-phenanthren-2-ylcarbamoyl)-heptanoic Acid Methyl Ester] | 1.1 | 4 | > 30 | 14
13 | COC(=O)CCCC(=O)Nc1ccc2c(c1)C(=O)C(=O)c1cccc([N+](=O)[O-])c1-2 [Example 65, 4-(5-Nitro-9,10-dioxo-9,10-dihydro-phenanthren-2-ylcarbamoyl)-butyric Acid Methyl Ester] | 1.1 | 0.6 | 3.1 | 15
14 | COC(=O)CCC(=O)Nc1ccc2c(c1)C(=O)C(=O)c1cccc([N+](=O)[O-])c1-2 [Example 66, N-(5-Nitro-9,10-dioxo-9,10-dihydro-phenanthren-2-yl)-succinamic Acid Methyl Ester] | 0.9 | 3.5 | 1.8 | 13
15 | COC(=O)CCCC(=O)Nc1cccc2c1-c1ccccc1C(=O)C2=O [Example 67, 4-(9,10-Dioxo-9,10-dihydro-phenanthren-4-ylcarbamoyl)-butyric Acid Methyl Ester] | 1 | 0.8 | 2.2 | 4
16 | COC(=O)CCCCCCC(=O)Nc1cccc2c1-c1ccccc1C(=O)C2=O [Example 68, 7-(9,10-Dioxo-9,10-dihydro-phenanthren-4-ylcarbamoyl)-heptanoic Acid Methyl Ester] | 1 | 1.8 | 3.2 | 7.5
17 | COC(=O)CCCCCCCCC(=O)Nc1cccc2c1-c1ccccc1C(=O)C2=O [Example 69, 9-(9,10-Dioxo-9,10-dihydro-phenanthren-4-ylcarbamoyl)-nonanoic Acid Methyl Ester] | 0.6 | 4.6 | 4.8 | 14
18 | COC(=O)CCCC(=O)Nc1ccc2c(c1)C(=O)C(=O)c1ccccc1-2 [Example 70, 4-(9,10-Dioxo-9,10-dihydro-phenanthren-2-ylcarbamoyl)-butyric Acid Methyl Ester] | 0.4 | 0.5 | 4.7 | 3
19 | COC(=O)CCC(=O)Nc1ccc2c(c1)C(=O)C(=O)c1cccc(NC(=O)CCC(=O)OC)c1-2 [Example 73, N-[5-(3-Methoxycarbonyl-propionylamino)-9,10-dioxo-9,10-dihydro-phenanthren-2-yl]-succinamic Acid Methyl Ester] | 0.5 | 5 | 3 | 11
20 | COC(=O)CCCC(=O)Nc1ccc2c(c1)C(=O)C(=O)c1cccc(NC(=O)CCCC(=O)OC)c1-2 [Example 74, 4-[5-(4-Methoxycarbonyl-butyrylamino)-9,10-dioxo-9,10-dihydro-phenanthren-2-ylcarbamoyl]-butyric Acid Methyl Ester] | 0.8 | 2.6 | 3.3 | 19
21 | COC(=O)CCCCCCC(=O)Nc1ccc2c(c1)C(=O)C(=O)c1cccc(NC(=O)CCCCCCC(=O)OC)c1-2 [Example 75, 7-[5-(7-Methoxycarbonyl-heptanoylamino)-9,10-dioxo-9,10-dihydro-phenanthren-2-ylcarbamoyl]-heptanoic Acid Methyl Ester] | 0.8 | 2.6 | 10 | 13
22 | COC(=O)CCCCCCCCC(=O)Nc1ccc2c(c1)C(=O)C(=O)c1cccc(NC(=O)CCCCCCCCC(=O)OC)c1-2 [Example 76, 9-[5-(9-Methoxycarbonyl-nonanoylamino)-9,10-dioxo-9,10-dihydro-phenanthren-2-ylcarbamoyl]-nonanoic Acid Methyl Ester] | 9.3 | 7 | > 30 | > 30
